These results are taken from patent publication US9611232B2, “Oxazolidinone and imidazolidinone compounds” (Hoffmann-La Roche Inc., priority 2012, dated 2017).

Values joined by “and” are separate entries in the source; they are usually repeats but may differ in a detail not shown here. Identical values can stand only once.

This test concerns the target KCa3.1 (Homo sapiens (Human), UniProt O15554). Description: Thallium influx assay (FLIPR, FluxOR). The conditions noted are these: CHOK1 cells over-expressing KCa3.1; thallium (3.3 mM)/ionomycin (1 μM) activation. The class given is cell-based. The protocol:
The thallium influx assay was performed with CHOK1 cells over-expressing KCa3.1 obtained from Evotec and maintained in MEM Alpha medium supplemented with 10% fetal bovine serum, 100 U/ml penicillin/[…] streptomycin and 250 μg/ml G418.
CHOK1 wild type cells were passaged using F12/Ham's medium supplemented with 10% fetal bovine serum, 2 mM glutamine, 100 U/ml penicillin/[…] streptomycin. All cells were cultured in T175 flasks.
Before the day of the assay, cells were harvested from culture flasks using standard trypsin digestion. Cells were counted and densities adjusted and dispensed into 384-well poly-D-lysine coated plates at 7500 […], assay plates were incubated overnight in CO2 incubator at 37° C.
The following day, growth media was removed followed by the addition of 25 ul/well of FluxOR™ (Invitrogen) loading dye in a gluconate based assay buffer (135 mM NaGluconate,
2.5 mM Kgluconate, 2 mM CaNO3, 1 mM MgNO3, 10 mM HEPES (acid), 5 mM glucose pH adjusted to 7.4). Assay plates were incubated for 1 hour at 37° C. The loading dye was then replaced with gluconate assay buffer containing probenecid.
Compounds diluted in gluconate buffer were transferred into the assay plates (25 μl/well) followed by incubation for 20 minutes at room temperature. The assay plates were then transferred to a Fluorometric Imaging Plate Reader (FLIPR), a baseline was read for twenty second capture, followed by the addition of 25 μl/well of channel activation solution in gluconate buffer—for KCa3.1 cells thallium (3.3 mM)/ionomycin(1 μM) was used and for the wild type, ionomycin only, then fluorescence was monitored for another 90 seconds.

On to `CCOC(=O)CN1C(=O)O[C@@H](c2ccc(F)cc2)[C@H]1c1cccc(C(F)(F)F)c1` (racemic) [Example 31, [(4RS,5SR)-5-(4-Fluoro-phenyl)-2-oxo-4-(3-trifluoromethyl-phenyl)-oxazolidin-3-yl]-acetic acid ethyl ester], for which half-maximal inhibition (IC50) was put at 7540 nM. Then `CCOC(=O)CN1C(=O)O[C@@H](c2cccc(C(F)(F)F)c2)[C@H]1c1cccc(C(F)(F)F)c1` (racemic) [Example 33], with 1560 nM; and `CCOC(=O)CN1C(=O)O[C@@H](c2ccc(F)cc2)[C@H]1c1ccc(F)cc1` (racemic) [Example 34], with 6700 nM; and `CNC(=O)CN1C(=O)O[C@@H](c2cccc(C(F)(F)F)c2)[C@H]1c1ccc(F)cc1` (racemic) [Example 36], with 6600 nM. Regarding `CCNC(=O)CN1C(=O)O[C@@H](c2cccc(C(F)(F)F)c2)[C@H]1c1ccc(F)cc1` (racemic) [Example 37], the IC50 (usually the midpoint of a concentration-inhibition curve) turned out to be 4900 nM. Then `N#CCN1C(=O)O[C@@H](c2cccc(C(F)(F)F)c2)[C@H]1c1ccc(F)cc1` (racemic) [Example 38], with 1600 nM.

Consider `O=C1O[C@@H](c2cccc(C(F)(F)F)c2)[C@@H](c2ccc(F)cc2)N1Cc1ncco1` (racemic) [Example 39, (4RS,5SR)-4-(4-fluorophenyl)-3-(oxazol-2-ylmethyl)-5-(3-(trifluoromethyl)phenyl)oxazolidin-2-one], for which inhibition was half-maximal at 11000 nM (IC50). The same measure for `Cc1coc(CN2C(=O)O[C@@H](c3cccc(C(F)(F)F)c3)[C@H]2c2ccc(F)cc2)n1` (racemic) [Example 40]: 6900 nM. The same measure for `NC(=O)CN1C(=O)OC(c2ccccc2F)(c2ccccc2F)[C@@H]1c1ccccc1` [Example 2, 2-[(S)-5,5-Bis-(2-fluoro-phenyl)-2-oxo-4-phenyl-oxazolidin-3-yl]-acetamide]: 830 nM. Then `NC(=O)CN1C(=O)OC(c2cccc(F)c2)(c2cccc(F)c2)[C@@H]1c1ccccc1` [Example 3, 2-[(S)-5,5-Bis-(3-fluoro-phenyl)-2-oxo-4-phenyl-oxazolidin-3-yl]-acetamide], with 630 nM; and `CCOC(=O)CN1C(=O)OC(c2ccc(F)cc2)(c2ccc(F)cc2)C1c1ccc(F)cc1F` (centres unmarked) [Example 4, [4-(2,4-Difluoro-phenyl)-5,5-bis-(4-fluoro-phenyl)-2-oxo-oxazolidin-3-yl]-acetic acid ethyl ester], with 3140 nM. With `NC(=O)CN1C(=O)OC(c2ccc(F)cc2)(c2ccc(F)cc2)[C@@H]1c1ccc(F)cc1F` [Example 5, 2-[(S)-4-(2,4-Difluoro-phenyl)-5,5-bis-(4-fluoro-phenyl)-2-oxo-oxazolidin-3-yl]-acetamide], the half-maximal inhibitory concentration (IC50) is 660 nM and 1140 nM. For the compound `CCOC(=O)CN1C(=O)OC(c2ccc(F)cc2)(c2ccc(F)cc2)[C@@H]1c1ccc(F)cc1` [Example 6, [(S)-4,5,5-Tris-(4-fluoro-phenyl)-2-oxo-oxazolidin-3-yl]acetic acid ethyl ester], half-maximal inhibition (IC50) was put at 1340 nM. Then `NC(=O)CN1C(=O)OC(c2ccc(F)cc2)(c2ccc(F)cc2)C1c1c(F)cccc1F` (centres unmarked) [Example 8, 2-[4-(2,6-Difluoro-phenyl)-5,5-bis-(4-fluoro-phenyl)-2-oxo-oxazolidin-3-yl]-acetamide], with 7150 nM; and `NC(=O)CN1C(=O)OC(c2ccc(F)cc2)(c2ccc(F)cc2)C1c1cccc(F)c1` (centres unmarked) [Example 9, 2-(4-(3-fluorophenyl)-5,5-bis(4-fluorophenyl)-2-oxooxazolidin-3-yl)acetamide], with 6050 nM; and `CCOC(=O)CN1C(=O)OC(c2ccc(F)cc2)(c2ccc(F)cc2)[C@@H]1c1ccccc1F` [Example 10, [5,5-Bis-(4-fluoro-phenyl)-4-(2-fluoro-phenyl)-2-oxo-oxazolidin-3-yl]-acetic acid ethyl ester], with 1900 nM. The same measure for `CCOC(=O)CN1C(=O)OC(c2ccccc2F)(c2ccccc2F)[C@@H]1c1ccccc1F` [Example 12, [(S)-4,5,5-Tris-(2-fluoro-phenyl)-2-oxo-oxazolidin-3-yl]acetic acid ethyl ester]: 1100 nM; for `CCOC(=O)CN1C(=O)OC(c2cccc(F)c2)(c2cccc(F)c2)[C@@H]1c1ccccc1F` [Example 14, [(S)-5,5-Bis-(3-fluoro-phenyl)-4-(2-fluoro-phenyl)-2-oxo-oxazolidin-3-yl]-acetic acid ethyl ester]: 3600 nM. With `CCOC(=O)CN1C(=O)OC(c2ccccc2)(c2ccccc2)[C@@H]1c1ccccc1F` [Example 16, [(S)-4-(2-Fluoro-phenyl)-2-oxo-5,5-diphenyl-oxazolidin-3-yl]-acetic acid ethyl ester], the IC50 was determined as 1000 nM. Then `NC(=O)CN1C(=O)NC(c2ccc(F)cc2)(c2ccc(F)cc2)[C@@H]1c1ccccc1` [Example 18, (S)-2-(4,4-bis(4-fluorophenyl)-2-oxo-5-phenylimidazolidin-1-yl)acetamide], with 3700 nM. Then `Cc1ccccc1[C@@H]1N(CC(N)=O)C(=O)OC1(c1ccc(F)cc1)c1ccc(F)cc1` [Example 20, 2-[(S)-5,5-Bis-(4-fluoro-phenyl)-2-oxo-4-o-tolyl-oxazolidin-3-yl]-acetamide], with 2200 nM; and `COC(=O)CN1C(=O)OC(c2ccc(F)cc2)(c2ccc(F)cc2)[C@@H]1c1ccccc1F` [Example 21, (S)-methyl 2-(4-(2-fluorophenyl)-5,5-bis(4-fluorophenyl)-2-oxooxazolidin-3-yl)acetate], with 650 nM. Then `CNC(=O)CN1C(=O)OC(c2ccc(F)cc2)(c2ccc(F)cc2)[C@@H]1c1ccccc1F` [Example 22, (S)-2-(4-(2-fluorophenyl)-5,5-bis(4-fluorophenyl)-2-oxooxazolidin-3-yl)-N-methylacetamide], with 600 nM; and `CCNC(=O)CN1C(=O)OC(c2ccc(F)cc2)(c2ccc(F)cc2)[C@@H]1c1ccccc1F` [Example 23, (S)—N-ethyl-2-(4-(2-fluorophenyl)-5,5-bis(4-fluorophenyl)-2-oxooxazolidin-3-yl)acetamide], with 1960 nM; and `N#CCN1C(=O)OC(c2ccc(F)cc2)(c2ccc(F)cc2)[C@@H]1c1ccccc1F` [Example 24, [(S)-5,5-Bis-(4-fluoro-phenyl)-4-(2-fluoro-phenyl)-2-oxo-oxazolidin-3-yl]-acetonitrile], with 1480 nM. As to `O=C1OC(c2ccc(F)cc2)(c2ccc(F)cc2)[C@H](c2ccccc2F)N1Cc1nnc[nH]1` [Example 25, (S)-3-((4H-1,2,4-triazol-3-yl)methyl)-4-(2-fluorophenyl)-5,5-bis(4-fluorophenyl)oxazolidin-2-one], the IC50 came out at 10000 nM.

`CCOC(=O)CN1C(=O)OC(c2ccc(F)cc2)(c2ccc(F)cc2)C1c1cccnc1` (centres unmarked) [Example 26, Ethyl 2-(5,5-bis(4-fluorophenyl)-2-oxo-4-(pyridin-3-yl)oxazolidin-3-yl)acetate] gave an IC50 of 9200 nM.

As for `NC(=O)CN1C(=O)OC(c2ccc(F)cc2)(c2ccc(F)cc2)C1c1cccnc1` (centres unmarked) [Example 27, 2-(5,5-bis(4-fluorophenyl)-2-oxo-4-(pyridin-3-yl)oxazolidin-3-yl)acetamide], the midpoint of inhibition, the IC50, lay at 6700 nM.

Consider `NC(=O)CN1C(=O)OC(c2ccc(F)c(F)c2)(c2ccc(F)c(F)c2)[C@@H]1c1ccccc1` [Example 28, (S)-2-(5,5-bis(3,4-difluorophenyl)-2-oxo-4-phenyloxazolidin-3-yl)acetamide], for which half-maximal inhibition (IC50) was put at 770 nM.
